{"source": "patent US20180110743A1", "about": "“COMPOSITIONS AND METHODS FOR TREATING HEPATOCELLULAR CARCINOMA” (Northwestern University, priority 2015, published 2018)", "key": {"K562/ADR": {"test_system": "K562/ADR", "assay": "Growth inhibition IC50 in multidrug-resistant vs parental cells (resistance factor), K562/ADR", "format": "cell-based", "conditions": "ratio of IC50 in K562/ADR to sensitive parental cells", "procedure": "(§1) To address this point, the IC50 of MEAN in cell lines with or without activated p-glycoprotein were compared based on the rationale that if an agent is a substrate, its IC50 (growth inhibition in this case) will increase substantially in cells with activated p-glycoproteins (multi-drug resistant cells). Three separate experiments were carried out to determine the values of IC50, as mean±standard deviation (μM), and the inhibition rates of each concentration of compounds were tested in triplicate. The resistance factor (RF) was calculated as the ratio of the IC50 value of the multidrug-resistant cells to that of the corresponding sensitive parental cells.\n(§2) IC50 of MEAN and reference compounds, doxorubicin and vincristine (VCR), were evaluated in three MDR expressing sublines: K562/ADR, MCF-7/ADR, and KB/VCR developed from resistance to Adriamycin (ADR) (FIG. 4C). For each of these cell lines, the RFs were measured to indicate the anti-MDR properties of the compounds. The resistance factor for doxorubicin in K562/ADR and MCF-7/ADR sublines and for vincristine in the KB/VCR subline were 74.1, 54.0, and 51.2."}, "MCF-7/ADR": {"test_system": "MCF-7/ADR", "assay": "Growth inhibition IC50 in multidrug-resistant vs parental cells (resistance factor), MCF-7/ADR", "format": "cell-based", "conditions": "ratio of IC50 in MCF-7/ADR to sensitive parental cells", "procedure": "as §1, §2"}, "HCC": {"test_system": "HCC", "conditions": "cited from earlier work"}, "[1]": {"assay": "Toxicity in treated xenograft mice: body weight, behavior, eating, stool", "format": "in vivo", "conditions": "15 mg/kg each agent, 5 days on and 2 days off, six weeks", "procedure": "FIG. 3. Toxicity induced by treatment of MEAN, sorafenib or a combination of both were measured against vehicle treated group through monitoring body weight changes throughout treatment course (A) and detecting the serum levels of liver enzymes at the experimental end point (B). The recovery of liver enzymes days after experimental end point (42nd day). n=10. a: each group vs Vehicle, b: sorafenib vs MEAN, c: M+S vs MEAN. *: p<0.05, **: p<0.01, Sorafenib vs M+S: has no difference.\n(§3) HepG2-luc and Huh7-luc xenograft studies of efficacy and toxicity: Male nu/nu (nude) mice (18-20 g at experiment initiation) were maintained at the vivarium of Zhejiang University in a pathogen-free unit, under a 12-hour light/dark cycle. […] Images were collected and analyzed with Living Image software (Slidebook 4.1, Denver, Colo.). Tumor volumes were determined twice weekly by mechanically measuring the length (a) and width (b), with volume=ab^2/2. Tumor weights were measured at the experimental end point, and statistical analysis was performed using Student's t test.\nTo determine whether the combinational treatment by MEAN and sorefenib could increase toxicity compared to those caused by monotherapy, the toxicity induced by the treatment with either agent alone and in combination was evaluated in treated animals. […]"}, "SHP-1 [2]": {"test_system": "SHP-1", "assay": "Western blot of treated xenograft tumor tissue, SHP-1", "format": "in vivo, mice", "conditions": "Huh7 and HepG2 tumors, end of 42 day treatment", "procedure": "(§4) FIG. 6. […] The intensity of vehicle is set at 1 and ratios of treatment/vehicle are plotted in each quantitative graph.\n(§5) Cells or tumor chunks were lysed with RIPA lysis buffer (Beyotime Biotechnology, Jiangsu, China) containing 1% Halt™ Protease and Phosphatase Inhibitor Cocktail (100X) (Thermo Fisher Scientific). 20 ug of total protein per lanewere separated by 10% SDS-PAGE gels and transferred to polyvinylidene difluoride membranes (Millipore, Bedford, Mass.), and blocked with 1% BSA in TBS-Tween 20 (0.05%, v/v) for 1 h at room temperature. The membrane was incubated with primary antibody overnight at 4° C. Antibodies for c-Myc and GAPDH were obtained from Cell Signaling Technology (Beverly, Mass.), and TXNIP, SHP-1, and SIRT1 were obtained from Abcam (Cambridge, Mass.). After washing, the membrane was incubated with the appropriate horseradish peroxidase-conjugated secondary antibody (1:3000; Eptmomics) for 1 h. Blots were visualized by ECL-associated fluorography (Millipore). Relative band intensity was quantified using the ImageJ software to determine c-myc, TXNIP, SHP-1, and SIRT1 levels."}, "TXNIP [3]": {"test_system": "TXNIP", "assay": "Western blot of treated xenograft tumor tissue, TXNIP", "format": "in vivo, mice", "conditions": "Huh7 and HepG2 tumors, end of 42 day treatment", "procedure": "as §4, §5"}, "SIRT1 [4]": {"test_system": "SIRT1", "assay": "Western blot of treated xenograft tumor tissue, SIRT1", "format": "in vivo, mice", "conditions": "Huh7 and HepG2 tumors, end of 42 day treatment", "procedure": "as §4, §5"}, "HepG2-luc xenograft": {"test_system": "HepG2-luc xenograft", "assay": "HepG2-luc xenograft tumor growth in nude mice", "format": "in vivo", "conditions": "15 mg/kg each agent, IP, 5 days-on and 2 days-off for 42 days", "procedure": "(§6) FIG. 2. MEAN inhibits HepG2-luc xenograft tumor growth more potently than sorefenib in nude mice. Ten days after inoculation of 10^7 tumor cells subcutaneously, mice were treated with MEAN (15 mg/kg), sorafenib (15 mg/kg), or MEAN and sorafenib in combination at 15 mg/kg each, or vehicle through IP at a schedule of 5 days-on and 2 days-off for 42 days. The tumor growths were measured by whole mount imaging of luciferin florescence (representative images) (A) photon counts biweekly (B) and photon count at end of the experiment, day 42th (C), by volume (D), and by tumor weight at the experimental end point (E). Statistical analyses using t test are shown in (C and E), where *=p<0.5 and **=p<0.01. Where there is not black bar indicates p>0.5 (n=5).\nas §3, with “test. […]” for “test.”"}, "c-myc [5]": {"test_system": "c-myc", "assay": "Western blot of treated xenograft tumor tissue, c-myc", "format": "in vivo, mice", "conditions": "Huh7 and HepG2 tumors, end of 42 day treatment", "procedure": "as §4, §5\nTo evaluate whether the gene expression changes in response to MEAN is cell type specific, another HCC cell line, Huh7 was also examined for the corresponding gene expression changes upon the treatment by MEAN. […]"}, "Huh7-luc xenograft": {"test_system": "Huh7-luc xenograft", "assay": "Huh7-luc xenograft tumor growth in nude mice", "format": "in vivo", "conditions": "15 mg/kg each agent, IP, 5 days-on and 2 days-off for 42 days", "procedure": "as §6, with “1.” for “2.”, “Huh7-luc” for “HepG2-luc”\nas §3, with “test. […]” for “test.”"}, "[6]": {"assay": "Serum ALT and AST measurement in treated mice", "format": "in vivo", "conditions": "42nd day of treatment, 15 mg/kg each agent, vs vehicle", "procedure": "Blood samples were collected from each mouse at the end of the 42th day. Serum alanine aminotransferase aspartate (ALT) and aspartate aminotransferase (AST) were measured with an automated biochemical analyzer (DRI-CHEM 4000ie, FUJIFILM).\nTo determine whether the combinational treatment by MEAN and sorefenib could increase toxicity compared to those caused by monotherapy, the toxicity induced by the treatment with either agent alone and in combination was evaluated in treated animals. Toxicity was assessed by periodic body weight, mice behavior (grooming), eating, stool consistency, and serum liver enzymes levels (alanine aminotransferase, ALT, and aspartate aminotransferase, AST) at the experimental end points. […] This increase is reversible within 2 weeks of the treatment withdrawal (FIG. 3C)."}, "KB/VCR": {"test_system": "KB/VCR", "assay": "Growth inhibition IC50 in multidrug-resistant vs parental cells (resistance factor), KB/VCR", "format": "cell-based", "conditions": "ratio of IC50 in KB/VCR to sensitive parental cells", "procedure": "as §1, §2"}, "SHP-1 [7]": {"test_system": "SHP-1", "assay": "Western blot of treated HCC cells in culture, SHP-1", "format": "cell-based, human", "conditions": "HepG2 and Huh7 cells in culture", "procedure": "as §5"}, "SIRT1 [8]": {"test_system": "SIRT1", "assay": "Western blot of treated HCC cells in culture, SIRT1", "format": "cell-based, human", "conditions": "HepG2 and Huh7 cells", "procedure": "as §5"}, "c-myc [9]": {"test_system": "c-myc", "assay": "RNA array analysis of treated HepG2 cells", "format": "cell-based, human", "conditions": "20 μM for 6 hours, vs DMSO", "procedure": "RNA expression analysis was performed by GeneChip® PrimeView™ Human Gene Expression Array. Initially, genes were identified as being differentially expressed on the basis of a statistical significance (P <0.05) and 1.5-fold change (up or down) in expression levels in each comparison.\nThe choice of the treatment dose was based on the PK analyses (supplemental material) that the serum concentration of MEAN is around 20 uM approximately 6 hours after injection. Furthermore a relatively short duration of treatment was designed to catch the more primary cellular responses at the early stage of the treatment. GeneChip® PrimeView™ Human Gene Expression Array was used in triplicates to quantify RNA extracted from treated HepG2 cells."}, "HepG2 cells": {"test_system": "HepG2 cells", "assay": "Cell cycle profiling by Dapi staining and flow cytometry", "format": "cell-based, human", "conditions": "5 uM for 24 hours", "procedure": "After treatment, cells were washed with PBS two times and centrifugation then, re-suspended in PBS (Ca and Mg free). 3.0m1 ice cold 95% ethanol was added to the cell pellet in a dropwise manner while vortexing and then was incubated for 30 minutes. The volume was brought up to 15 mL with PBS and the cells was pelleted and washed one time with PBS via centrifugation. Cells were resuspended in 1 ml of 10 ug/ml Dapi in PBS with 0.1% TritonX-100 to a concentration of 1×10^6cells/ml and incubated for 30 minutes on ice. The samples were then analyzed through flowcytometery and the DNA contents of the cellular population were sorted and evaluated.\nAdditional evidence supporting the differences between MEAN and AMN came from their differential impact on cell cycle."}, "TXNIP [10]": {"test_system": "TXNIP", "assay": "Expression in treated HCC cells in culture, TXNIP", "format": "cell-based, human", "conditions": "treated cells in vitro", "procedure": "as §5"}, "c-myc [11]": {"test_system": "c-myc", "assay": "Western blot of treated HCC cells in culture, c-myc", "format": "cell-based, human", "conditions": "HepG2 and Huh7 cells; less than 10 uM (FIG. 5B and D)", "procedure": "as §5"}}, "note": "Like-named read-outs stand apart in the source and are kept apart here.", "data": [{"compound": "COc1cccc2c1C(=O)c1c(O)c3c(c(O)c1C2=O)C[C@@](O)(C(=O)CO)C[C@@H]3O[C@H]1C[C@H](N)[C@H](O)[C@H](C)O1", "note": "[doxorubicin, reference compound]", "values": [{"measurement": "resistance factor (RF)", "setting": "K562/ADR", "result": 74.1}, {"measurement": "resistance factor (RF)", "setting": "MCF-7/ADR", "result": 54.0}]}, {"compound": "CNC(=O)c1cc(Oc2ccc(NC(=O)Nc3ccc(Cl)c(C(F)(F)F)c3)cc2)ccn1", "note": "[sorafenib, reference compound]", "values": [{"measurement": "median overall survival", "setting": "HCC; Asian study", "result": 6.5, "unit": "months"}, {"measurement": "median overall survival", "setting": "HCC; SHARP study", "result": 10.7, "unit": "months"}, {"measurement": "body weight change", "setting": "[1]", "result": "did not significantly alter body weight"}, {"measurement": "SHP-1 protein level in tumors", "setting": "SHP-1 [2]", "result": "does not significantly change"}, {"measurement": "TXNIP protein level in tumors", "setting": "TXNIP [3]", "result": "does not significantly change"}, {"measurement": "SIRT1 protein level in tumors", "setting": "SIRT1 [4]", "result": "does not significantly change"}, {"measurement": "tumor growth compared with vehicle (luciferase emission, tumor volume, tumor weight)", "setting": "HepG2-luc xenograft", "result": "significant tumor growth retardation"}, {"measurement": "c-myc protein level in tumors", "setting": "c-myc [5]", "result": "does not significantly change"}, {"measurement": "tumor growth compared with vehicle (luciferase emission, tumor volume, tumor weight)", "setting": "Huh7-luc xenograft", "result": "significant tumor growth retardation"}, {"measurement": "serum liver enzymes (ALT and AST) at experimental end point", "setting": "[6]", "result": "more significantly increased"}]}, {"compound": "CC[C@]1(O)C[C@H]2CN(CCc3c([nH]c4ccccc34)[C@@](C(=O)OC)(c3cc4c(cc3OC)N(C=O)[C@H]3[C@@](O)(C(=O)OC)[C@H](OC(C)=O)[C@]5(CC)C=CCN6CC[C@]43[C@@H]65)C2)C1", "note": "[vincristine, reference compound]", "values": [{"measurement": "resistance factor (RF)", "setting": "KB/VCR", "result": 51.2}]}, {"compound": "Amonafide [AMN, reference compound]", "values": [{"measurement": "SHP-1 protein level", "setting": "SHP-1 [7]", "result": "does not significantly impact"}, {"measurement": "SIRT1 protein level", "setting": "SIRT1 [8]", "result": "not significantly changed"}, {"measurement": "c-myc RNA expression level", "setting": "c-myc [9]", "result": "significantly reduce"}, {"measurement": "cell cycle profile (DNA content)", "setting": "HepG2 cells", "result": "G2 accumulation with diminishing Gl"}, {"measurement": "TXNIP expression", "setting": "TXNIP [10]", "result": "significantly increase"}, {"measurement": "c-myc (myc) protein level", "setting": "c-myc [11]", "result": "does not significantly reduces"}]}]}
